Data reported in the NIST ThermoML archive (doi:10.1021/acs.jced.8b00135).

How the values were obtained:
[1] = refractive index (Na D-line) (dimensionless); details: 96.5 kPa, Liquid, Standard Abbe refractometry
[2] = 96.5 kPa, Liquid, Capillary tube (Ostwald / Ubbelohde) method

Cc1ccccc1O [2-methylphenol]
Details | refractive index, 288.15 K | refractive index, 293.15 K | refractive index, 298.15 K | refractive index, 303.15 K | refractive index, 308.15 K | viscosity, 288.15 K [mPa·s] | viscosity, 293.15 K [mPa·s] | viscosity, 298.15 K [mPa·s] | viscosity, 303.15 K [mPa·s] | viscosity, 308.15 K [mPa·s]
[1] | 1.5407 | 1.5392 | 1.5382 | 1.5362 | 1.5336 | – | – | – | – | –
[2] | – | – | – | – | – | 13.28 | 9.68 | 7.76 | 6.575 | 5.566
